Measured values: patent publication US7692014B2, “Inhibitors of the HIV integrase enzyme” (Pfizer, Inc., priority 2004, dated 2010)

molecular target: T1, Full-length wild type HIV-1 integrase (SF1) (Human immunodeficiency virus type 1 group M subtype B, UniProt P04585); assay: Integrase strand-transfer scintillation proximity assay; assay type: biochemical; details: integrase strand-transfer SPA; read-out: IC50
T1 construct: made in house; host or cells: E. coli BL21 (DE3), pET24a vector
Excerpt: Integrase Strand-Transfer Scintillation Proximity Assay Oligonucleotides
The annealed product represents preprocessed viral ds-DNA derived from the LTR U5 sequence of the viral genome. A ds-DNA control to test for non-specific interactions was made using a 3′ di-deoxy derivative of oligonucleotide #1 annealed to oligonucleotide #2. The CA overhang at the 5′ end of the non-biotinylated strand of the ds-DNA was created artificially by using a complimentary DNA oligonucleotide shortened by 2 base pairs. This configuration eliminates the requisite 3′ processing step of the integrase enzyme prior to the strand-transfer mechanism.
Host ds-DNA was prepared as an unlabeled and [^3H]-thymidine labeled product from annealed oligonucleotide #3—5-[…]-3′ (SEQ ID NO: 3), and oligonucleotide #4—5′-[…]-3′ (SEQ ID NO: 4), both synthesized by TriLink BioTechnologies, Inc. (San Diego, Calif.). The annealed product had overhanging 3′ ends of poly(dA). […] The radiolabeled product was purified using a NENSORB cartridge and stored in stabilized aqueous solution (PerkinElmer).
Reagents: Streptavidin-coated polyvinyltoluene (PVT) SPA beads were purchased from Amersham Biosciences (Piscataway, N.J.). Cesium chloride was purchased from Shelton Scientific, Inc. (Shelton, Conn.). White, polystyrene, flat-bottom, non-binding surface, 96-well plates were purchased from Corning. All other buffer components were purchased from Sigma (St. Louis, Mo.) unless otherwise indicated. Enzyme Construction: Full-length wild type HIV-1 integrase (SF1) sequence (amino acids 1-288) was constructed in a pET24a vector (Novagen, Madison, Wis.). […] Enzyme Purification: Full length wild-type HIV Integrase was expressed in E.coli BL21 (DE3) cells and induced with 1 mM isopropyl-1 thio-β-D-galactopyranoside (IPTG) when cells reached an optical density between 0.8-1.0 at 600 nm. Cells were lysed by microfluidation in 50 mM HEPES pH 7.0, 75 mM NaCl, 5 mM DTT, 1 mM 4-(2-Aminoethyl)benzenesulfonylfluoride HCl (AEBSF). Lysate was then centrifuged 20 minutes at 11 k rpm in GSA rotor in Sorvall RC-5B at 4° C. Supernant was discarded and pellet resuspended in 50 mM HEPES pH 7.0, 750 mM NaCl, 5 mM DTT, 1 mM AEBSF and homogenized in a 40 mL Dounce homogenizer for 20 minutes on ice. Homogenate was then centrifuged 20 minutes at 11 k rpm in SS34 rotor in Sorvall RC-5B at 4° C. Supernant was discarded and pellet resuspended in 50 mM HEPES pH 7.0, 750 mM NaCl, 25 mM CHAPS, 5 mM DTT, 1 mM AEBSF. Preparation was then centrifuged 20 minutes at 11 k rpm in SS34 rotor in Sorvall RC-5B at 4° C.
Supernant was then diluted 1:1 with 50 mM HEPES pH 7.0, 25 mM CHAPS, 1 mM DTT, 1 mM AEBSF and loaded onto a Q-Sepharose column pre-equilibrated with 50 mM HEPES, pH 7.0, 375 mM NaCl, 25 mM CHAPS, 1 mM DTT, 1 mM AEBSF. The flow through peak was collected and NaCl diluted to 0.1 M with 50 mM HEPES pH 7.0, 25 mM CHAPS, 1 mM DTT, 0.5 mM AEBSF and loaded onto a SP-Sepharose column pre-equilibrated with 50 mM HEPES pH 7.0, 100 mM NaCl, 25 mM CHAPS, 1 mM DTT, 0.5 mM AEBSF. After washing the column with the equilibration buffer, a 100 to 400 mM NaCl gradient was run. The eluted integrase was concentrated and run on a S-300 gel diffusion column using 50 mM HEPES pH 7.0, 500 mM NaCl, 25 mM CHAPS, 1 mM DTT, 0.5 mM AEBSF. […] All columns were run in a 4° C. cold room.
Viral DNA Bead Preparation: Streptavidin-coated SPA beads were suspended to 20 mg/mL in 25 mM 3-morpholinopropanesulfonic acid (MOPS) (pH 7.2) and 1.0% NaN3.

Compound | IC50 [nM]
CC(=O)N1CCN(C(=O)c2cn(Cc3ccc(F)cc3)c3cnc4c(=O)n(O)ccc4c23)CC1 [Example 27, 1-[(4-acetylpiperazin-1-yl)carbonyl]-3-(4-fluorobenzyl)-7-hydroxy-3,7-dihydro-6H-pyrrolo[2,3-c]-1,7-naphthyridin-6-one] | 13
O=C(NCCc1cnccn1)c1cn(Cc2ccc(F)cc2)c2cnc3c(=O)n(O)ccc3c12 [Example 28, 3-(4-fluorobenzyl)-7-hydroxy-6-oxo-N-(2-pyrazin-2-ylethyl)-6,7-dihydro-3H-pyrrolo[2,3-c]-1,7-naphthyridine-1-carboxamide] | 12
O=C(NCc1ccccn1)c1cn(Cc2ccc(F)cc2)c2cnc3c(=O)n(O)ccc3c12 [Example 29, 3-(4-fluorobenzyl)-7-hydroxy-6-oxo-N-(pyridin-2-ylmethyl)-6,7-dihydro-3H-pyrrolo[2,3-c]-1,7-naphthyridine-1-carboxamide] | 12
O=C(NCC(F)(F)F)c1cn(Cc2ccc(F)cc2)c2cnc3c(=O)n(O)ccc3c12 [Example 30, 3-(4-fluorobenzyl)-7-hydroxy-6-oxo-N-(2,2,2-trifluoroethyl)-6,7-dihydro-3H-pyrrolo[2,3-c]-1,7-naphthyridine-1-carboxamide] | 13
O=c1c2ncc3c(c(COC[C@@H](O)CO)cn3Cc3ccc(F)cc3)c2ccn1O [Example 31, 1-({[(2S)-2,3-dihydroxypropyl]oxy}methyl)-3-(4-fluorobenzyl)-7-hydroxy-3,7-dihydro-6H-pyrrolo(2,3-c]-1,7-naphthyridin-6-one] | 9
CC(C)(C)OC(=O)N1CCC(COCc2cn(Cc3ccc(F)cc3)c3cnc4c(=O)n(O)ccc4c23)CC1 [Example 32] | 108
O=c1c2ncc3c(c(COCCc4ccccn4)cn3Cc3ccc(F)cc3)c2ccn1O [Example 33, 3-(4-fluorobenzyl)-7-hydroxy-1-[(2-pyridin-2-ylethoxy)methyl]-3,7-dihydro-6H-pyrrolo[2,3-c]-1,7-naphthyridin-6-one] | 26
O=c1c2ncc3c(c(COCCOC4CCCCC4)cn3Cc3ccc(F)cc3)c2ccn1O [Example 34, 1-{[2-(cyclohexyloxy)ethoxy]methyl}-3-(4-fluorobenzyl)-7-hydroxy-3,7-dihydro-6H-pyrrolo[2,3-c]-1,7-naphthyridin-6-one] | 45
COCCOCc1cn(Cc2ccc(F)cc2)c2cnc3c(=O)n(O)ccc3c12 [Example 36, 3-(4-fluorobenzyl)-7-hydroxy-1-[(2-methoxyethoxy)methyl]-3,7-dihydro-6H-pyrrolo[2,3-c]-1,7-naphthyridin-6-one] | 20
O=c1c2ncc3c(c(COC4CCOCC4)cn3Cc3ccc(F)cc3)c2ccn1O [Example 37, 3-(4-fluorobenzyl)-7-hydroxy-1-[(tetrahydro-2H-pyran-4-yloxy)methyl]-3,7-dihydro-6H-pyrrolo[2,3-c]-1,7-naphthyridin-6-one] | 23
O=c1c2ncc3c(c(CNC4(CO)CCCC4)cn3Cc3ccc(F)cc3)c2ccn1O [Example 39, 3-(4-fluorobenzyl)-7-hydroxy-1-({[1-(hydroxymethyl)cyclopentyl]amino)methyl)-3,7-dihydro-6H-pyrrolo[2,3-c]-1,7-naphthyridin-6-one] | 79
CCCNCc1cn(Cc2ccc(F)cc2)c2cnc3c(=O)n(O)ccc3c12 [Example 40, 3-(4-fluorobenzyl)-7-hydroxy-1-[(propylamino)methyl]-3,7-dihydro-6H-pyrrolo[2,3-c]-1,7-naphthyridin-6-one] | 62
Cc1cccc(CNCc2cn(Cc3ccc(F)cc3)c3cnc4c(=O)n(O)ccc4c23)c1 [Example 41, 3-(4-fluorobenzyl)-7-hydroxy-1-{[(3-methylbenzyl)amino]methyl}-3,7-dihydro-6H-pyrrolo[2,3-c]-1,7-naphthyridin-6-one] | 42
Cc1cnc(CNCc2cn(Cc3ccc(F)cc3)c3cnc4c(=O)n(O)ccc4c23)cn1 [Example 42, 3-(4-fluorobenzyl)-7-hydroxy-1-({[(5-methylpyrazin-2-yl)methyl]amino)methyl)-3,7-dihydro-6H-pyrrolo[2,3-c]-1,7-naphthyridin-6-one] | 54
O=c1c2ncc3c(c(CNCc4ccc(C(F)(F)F)cc4)cn3Cc3ccc(F)cc3)c2ccn1O [Example 43, 3-(4-fluorobenzyl)-7-hydroxy-1-({[4-(trifluoromethyl)benzyl]amino}methyl)3,7-dihydro-6H-pyrrolo[2,3-c]-1,7-naphthyridin-6-one] | 122
O=c1c2ncc3c(c(CNCc4ccccn4)cn3Cc3ccc(F)cc3)c2ccn1O [Example 44] | 31
O=C1c2ncc3c(ccn3Cc3ccc(F)cc3)c2CCCN1O [Example 45, 3-(4-fluorobenzyl)-7-hydroxy-7,8,9,10-tetrahydropyrrolo[3′,2′: 4,5]pyrido[2,3-c]azepin-6(3H)-one] | 24
CCCCc1cc2c(ncc3c2ccn3Cc2ccc(F)cc2)c(=O)n1O [Example 46, 8-butyl-3-(4-fluorobenzyl)-7-hydroxy-3,7-dihydro-6H-pyrrolo[2,3-c]-1,7-naphthyridin-6-one] | 49
Cc1cc2c(ncc3c2ccn3Cc2ccc(F)cc2)c(=O)n1O [Example 47, 3-(4-fluorobenzyl)-7-hydroxy-8-methyl-3,7-dihydro-6H-pyrrolo[2,3-c]-1,7-naphthyridin-6-one] | 11
CCCN(CCO)Cc1cn(Cc2ccc(F)cc2)c2cnc3c(=O)n(O)ccc3c12 [Example 48, 3-(4-fluorobenzyl)-7-hydroxy-1-{[(2-hydroxyethyl)(propyl)amino]methyl}-3,7-dihydro-6H-pyrrolo[2,3-c]-1,7-naphthyridin-6-one] | 11
O=c1c2ncc3c(c(CN4CCCCC4CO)cn3Cc3ccc(F)cc3)c2ccn1O (stereo not shown) [Example 49, 3-(4-fluorobenzyl)-7-hydroxy-1-{[2-(hydroxymethyl)piperidin-1-yl]methyl}-3,7-dihydro-6H-pyrrolo[2,3-c]-1,7-naphthyridin-6-one] | 13
CCN(CC)CCN(CC)Cc1cn(Cc2ccc(F)cc2)c2cnc3c(=O)n(O)ccc3c12 [Example 50, 1-{[[2-(diethylamino)ethyl] (ethyl)amino]methyl}-3-(4-fluorobenzyl)-7-hydroxy-3,7-dihydro-6H-pyrrolo[2,3-c]-1,7-naphthyridin-6-one] | 11.5
CCN(Cc1ccc(C)cc1)Cc1cn(Cc2ccc(F)cc2)c2cnc3c(=O)n(O)ccc3c12 [Example 51, 1-{[ethyl(4-methylbenzyl)amino]methyl}-3-(4-fluorobenzyl)-7-hydroxy-3,7-dihydro-6H-pyrrolo[2,3-c]-1,7-naphthyridin-6-one] | 17.5
CCS(=O)(=O)N1CCN(Cc2cn(Cc3ccc(F)cc3)c3cnc4c(=O)n(O)ccc4c23)CC1 [Example 52, 1-{[4-(ethylsulfonyl)piperazin-1-yl]methyl}-3-(4-fluorobenzyl)-7-hydroxy-3,7-dihydro-6H-pyrrolo[2,3-c]-1,7-naphthyridin-6-one] | 10.5
O=c1c2ncc3c(c(CN4CCC(O)CC4)cn3Cc3ccc(F)cc3)c2ccn1O [Example 53, 3-(4-fluorobenzyl)-7-hydroxy-1-[(4-hydroxypiperidin-1-yl)methyl]-3,7-dihydro-6H-pyrrolo[2,3-c]-1,7-naphthyridin-6-one] | 7
